Source: ChEMBL document CHEMBL1201862, “PubChem BioAssay data set” (2004)
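How tested: cells in 96-well plates exposed to compound for 48 hours at five concentrations. At the GI50, growth is halved.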 The source made the active and inactive calls. Cut-off read from the data, not from the text of the source: active = GI50 up to about 1.1 µM and inactive = higher.

What was measured:
Experiment in all cases: NCI tumour cell line growth inhibition, 48 h
786-0 = test system: 786-0
A549 = test system: A549
ACHN = test system: ACHN
COLO 205 = test system: COLO 205
EKVX = test system: EKVX
HCT-116 = test system: HCT-116
HOP-62 = test system: HOP-62
HT-29 = test system: HT-29
KM12 = test system: KM12
LOX IMVI = test system: LOX IMVI
MDA-MB-435 = test system: MDA-MB-435
MOLT-4 = test system: MOLT-4
NCI-H460 = test system: NCI-H460
OVCAR-3 = test system: OVCAR-3
OVCAR-4 = test system: OVCAR-4
OVCAR-8 = test system: OVCAR-8
PC-3 = test system: PC-3
SF-268 = test system: SF-268
T47D = test system: T47D
UO-31 = test system: UO-31

| Structure (SMILES) | GI50 (786-0) | GI50 (A549) | GI50 (ACHN) | GI50 (COLO 205) | GI50 (EKVX) | GI50 (HCT-116) | GI50 (HOP-62) | GI50 (HT-29) | GI50 (KM12) | GI50 (LOX IMVI) | GI50 (MDA-MB-435) | GI50 (MOLT-4) | GI50 (NCI-H460) | GI50 (OVCAR-3) | GI50 (OVCAR-4) | GI50 (OVCAR-8) | GI50 (PC-3) | GI50 (SF-268) | GI50 (T47D) | GI50 (UO-31) |
| --- | --- | --- | --- | --- | --- | --- | --- | --- | --- | --- | --- | --- | --- | --- | --- | --- | --- | --- | --- | --- |
| O=C(O)CC1OCC=C2C[N+]3([O-])CCC45c6ccccc6NC4C1C2CC53 (stereo not given) | > 100 µM (inactive) | > 100 µM (inactive) | > 100 µM (inactive) | > 100 µM (inactive) | > 100 µM (inactive) | > 100 µM (inactive) | > 100 µM (inactive) | > 100 µM (inactive) | > 100 µM (inactive) | > 100 µM (inactive) | > 100 µM (inactive) | > 100 µM (inactive) | > 100 µM (inactive) | > 100 µM (inactive) | > 100 µM (inactive) | > 100 µM (inactive) | > 100 µM (inactive) | > 100 µM (inactive) | > 100 µM (inactive) | > 100 µM (inactive) |
| NS(=O)(=O)c1ccc(NC(=O)N/N=C/c2ccccc2[N+](=O)[O-])cc1 | 45.6 µM (inactive) | > 100 µM (inactive) | 66.7 µM (inactive) | 38.4 µM (inactive) | 61 µM (inactive) | 30.1 µM (inactive) | 40.8 µM (inactive) | 30.1 µM (inactive) | 36 µM (inactive) | 44.7 µM (inactive) | 19 µM (inactive) | 39.8 µM (inactive) | > 100 µM (inactive) | 30.1 µM (inactive) | 59.8 µM (inactive) | 37.7 µM (inactive) | 35.6 µM (inactive) | 56.6 µM (inactive) | 57.4 µM (inactive) | 41 µM (inactive) |
| [N-]=[N+]=C1CNC(=O)NC1=O | 60.4 µM (inactive) | > 100 µM (inactive) | 69.3 µM (inactive) | > 100 µM (inactive) | > 100 µM (inactive) | > 100 µM (inactive) | > 100 µM (inactive) | > 100 µM (inactive) | > 100 µM (inactive) | 60.1 µM (inactive) | 95.7 µM (inactive) | 42.5 µM (inactive) | > 100 µM (inactive) | > 100 µM (inactive) | > 100 µM (inactive) | > 100 µM (inactive) | > 100 µM (inactive) | > 100 µM (inactive) | > 100 µM (inactive) | > 100 µM (inactive) |
| COC(=O)c1ccc(NCC2=CC(=O)c3ccccc3C2=O)cc1 | 19.3 µM (inactive) | 22.5 µM (inactive) | 13.9 µM (inactive) | 13.3 µM (inactive) | 21.1 µM (inactive) | 17.8 µM (inactive) | 16.2 µM (inactive) | 25.7 µM (inactive) | 15.4 µM (inactive) | 8.18 µM (inactive) | 12.2 µM (inactive) | 3.01 µM (inactive) | 18.2 µM (inactive) | 12.9 µM (inactive) | 14.2 µM (inactive) | 29.8 µM (inactive) | 14.3 µM (inactive) | 24.8 µM (inactive) | 12.2 µM (inactive) | 16.1 µM (inactive) |
| Oc1ccc(Cl)cc1CN1CCN(Cc2cc(Cl)ccc2O)C1 | 0.203 µM (active) | 1.75 µM (inactive) | 0.465 µM (active) | 1.45 µM (inactive) | 1.57 µM (inactive) | 0.234 µM (active) | 0.617 µM (active) | 1.87 µM (inactive) | 1.08 µM (active) | 0.489 µM (active) | 1.33 µM (inactive) | 0.174 µM (active) | 0.218 µM (active) | 0.367 µM (active) | 1.3 µM (inactive) | 0.525 µM (active) | 0.206 µM (active) | 1.09 µM (active) | 1.84 µM (inactive) | 0.536 µM (active) |
| CC(O)CN1c2ccccc2Sc2ccccc21 (stereo not given) | > 100 µM (inactive) | > 100 µM (inactive) | > 100 µM (inactive) | > 100 µM (inactive) | > 100 µM (inactive) | > 100 µM (inactive) | > 100 µM (inactive) | > 100 µM (inactive) | > 100 µM (inactive) | > 100 µM (inactive) | > 100 µM (inactive) | > 100 µM (inactive) | > 100 µM (inactive) | > 100 µM (inactive) | > 100 µM (inactive) | > 100 µM (inactive) | > 100 µM (inactive) | > 100 µM (inactive) | > 100 µM (inactive) | > 100 µM (inactive) |
